Reference: PMC4919555 (EBioMedicine, 2016)
Where two headings read alike, the source gives them in different places.

Columns and labels:
[1] = tested on: M. tuberculosis wild-type, katG-null and katG-overexpressing strains; type: cell-based
[2] = tested on: M. tuberculosis clinical isolates; type: cell-based

Row | SMILES | Killing of katG-null mutant strain [1] | Ratio (MIC relative to H37Rv) ([2]; CI1, − 15 C/T inhA) | Ratio (MIC relative to H37Rv) ([2]; CI2, − 15 C/T inhA) | Ratio (MIC relative to H37Rv) ([2]; CI3, − 15 C/T inhA) | Response of katG-null mutant [1] | Response of katG-overexpressing strain ([1]; 3.6 μM (0.5 μg/ml), 4 days)
1 | Cc1csc([C@](C)(O)c2nnc(Nc3ccn(Cc4csc(C)n4)n3)s2)n1 [GSK693, (S)-1-(4-methylthiazol-2-yl)-1-(5-((1-((2-methylthiazol-4-yl)methyl)-1H-pyrazol-3-yl)amino)-1,3,4-thiadiazol-2-yl)ethanol] | killed equally well as the wild-type strain |  |  |  |  | 
2 | NNC(=O)c1ccncc1 [INH, isoniazid] |  | 6 | 3 | 3 | resistant | more sensitive compared to the wild-type strain
